{
  "source": "patent US5731160A",
  "about": "“Induction of antigen specific T-lymphocyte responses by stimulation with peptide loaded MHC class I molecules on antigen processing defective mammalian cell lines” (Rijksuniversiteit Leiden, priority 1992, dated 1998)",
  "key": {"T2 cells": {"system": "T2 cells", "assay": "51Cr release cytotoxicity assay of p53 peptide specific CTL clones on peptide loaded T2 target cells", "type": "cell-based, human", "conditions": "peptide titration", "protocol": "As target cells served T2 cells, labeled with 100 μCi ^51 Cr for 1 h at 37° C. […] The target cells were washed once more before adding them to the effector cells. Effector target ratio ranged from 20:1 to 2.5:1 in twofold dilution. […] Total duration of the incubation time was 4 h at 37° C.\nThe percentage ^51 Cr release was calculated by the formula: [formula] 7. Cloning of CTL by limiting dilution\nThe clones were tested for specificity on peptide loaded ^51 Cr labeled target cells ranging from E/T 20 to E/T 2.5 in twofold dilution steps."}, "174CEM.T2 cells": {"system": "174CEM.T2 cells", "assay": "Primary CTL response induction with p53 peptide loaded 174CEM.T2 cells and HLA-A2.1 positive PBL", "type": "cell-based, human", "conditions": "PBL from healthy non-immunized HLA-A2.1 positive donor; peptide 80 μg/ml", "protocol": "174CEM.T2 (T2) cells in a concentration of 2×10^6 per ml were incubated for 13 hours at 37° C. in a T25 flask (Falcon, Becton & Dickinson, Plymouth, England, cat. no. 3013) in serum-free Iscove's medium (Biochrom KG, Seromed, Berlin, Gemany, cat. no. F0465) with glutamine (2 mM, ICN Biochemicals Inc., Costa Mes, Calif., U.S.A., cat. no. 15-801-55) and antibiotics as mentioned under 2 and p53 peptide at a final concentration of 80 μg/ml. Subsequently the T2 cells were spun down and treated at a density of 20×10^6 cells/ml with Mitomycin C (final concentration 50 μg/ml) in serum-free RPMI 1640 (manufacturer see 2) medium during one hour at 37° C. Thereafter the T2 cells were washed three times im RPMI 1640. Primary CTL responses were induced by filling all wells of a 96-well-U-bottom plate (Costar, Cambridge, Mass., U.S.A., cat. no. 3799) with 1×10^5 Mitomycin-C treated T2 cells in 50 μl of medium (serum-free RPMI 1640 containing glutamine and antibiotics as mentioned before), containing peptide at a concentration of 80 μg/ml. To these stimulator cells were added 4×10^5 HLA-A2.1 positive PBL in 50 μl of medium to each well. Stimulator and responder cells were cocultured for 7 days at 37° C. in an humidified incubator (90% humidity) and 5% CO2 in air.\nOn days 7 and 14 after primary response induction (see 5) the PBL (responder cells) were restimulated with peptide. […]"}, "target cells": {"system": "target cells", "conditions": "references 26 and 12; cited from earlier work"}, "RMA-S cells": {"system": "RMA-S cells", "assay": "Induction of primary CTL responses in vitro with peptide-loaded RMA-S cells", "type": "cell-based, murine", "conditions": "for Induction of primary CTL response by peptide-loaded RMA-S cells: NWP SC of unprimed B6 mice, 5-day culture, RMA-S as stimulator cells", "protocol": "(§1) RMA-S or RMA cells were pre-cultured for 36 h at 22° C. or 37° C. in IMDM medium supplemented with 2% human pooled serum, penicillin (100 IU/ml), kanamycin (100 μg/ml), S and 2-ME (2×10^-5 M). […] Without further washing these (peptide-loaded) RMA-S cells were incubated 1:1(v/v) with C57BL/6 nylon wool-passed spleen cells (B6 NWP SC) in 24-well culture plates: 4×10^6 responder cells and 1×10^6 stimulator cells in 1 ml of culture medium per well in IMDM medium supplemented with 10% FCS, penicillin (100 IU/ml), kanamycin (100 μg/ml), and 2-ME(2×10^-5 M). For a primary CTL response NWP SC of non-immunized C57BL/6 mice were used.\n(§2) After 5 days of culture the effectors were harvested on a lymphoprep (Nycomed Pharma, Oslo, Norway) gradient and tested for cytotoxic function on 2000 ^51 Cr-labeled target cells ranging from E/T 50 to E/T 0.8 in twofold dilution steps. The percentage specific ^51 Cr release was calculated by the formula: [formula]\nBackground (medium) release was always <25% of maximal (2% Triton X-100) release. The SE of triplicate culture was always <5% specific ^51 Cr release. Cytolytic activity calculated from individual dose-response curves is expressed as lytic units per 10^6 effector cells. Calculations were performed using linear regression. As target cells served: B6 mouse embryo cells, treated for 2 days with 50 U/ml IFN-γ at 37° C., LPS-induced (30 μg/ml LPS-B, Bacto Lab., Difco, Detroit, Mich., added to spleen cells for 5 days at 37° C.) B cell blasts from C57BL/6 mice (LPS) or EL4 cell (thymoma cell line of C57BL/6 origin, expressing K^b and Db). […] Virus-infected target cells were prepared by incubating 10^7 target cells with 300 HAU of nonvirulent Sendai virus in 1 ml of medium for 1 h or 12 h before labeling with ^51 Cr (28).\nInduction of primary CTL responses in vitro with peptide-loaded RMA-S cells. NWP SC of B6 unprimed mice were stimulated 1:1 (v/v) once in vitro with RMA-S cells, pre-cultured for 36 h at 22° C., only or incubated with 50 μM A16 peptide or 50 μM S16 peptide. Peptide was present during the 5-day culture at 25 μM concentration. The effectors were harvested and tested on B6 mouse embryo cells (MEC) and B6 LPS-induced B cell blasts (LPS) as target cells, without or with 50 μM A16 and S16, respectively.\nPeptide titration at induction level (A) and at target level (B) of primary CTL induced by peptide-loaded RMA-S cells.\nPrimary and secondary CTL responses induced by peptide-loaded RMA-S cells. For primary CTL responses NWP SC of B6 unprimed mice were used (A and B). For secondary CTL responses NWP SC of B6 mice were primed once i.p. with non-virulent Sendai virus (C and D)."}, "RMA cells": {"system": "RMA cells", "assay": "Induction of primary CTL responses with peptide-loaded parental RMA cells", "type": "cell-based, murine", "conditions": "any peptide concentration, pre-culture at 22° C. or 37° C.", "protocol": "as §1, §2\nBackground (medium) release was always <25% of maximal (2% Triton X-100) release. The SE of triplicate culture was always <5% specific ^51 Cr release. Cytolytic activity calculated from individual dose-response curves is expressed as lytic units per 10^6 effector cells. Calculations were performed using linear regression. […]"}, "[1]": {"system": "MHC class I molecules (H-2) on RMA and RMA-S cells", "assay": "Direct peptide binding studies with 125I-labeled S9 on RMA and RMA-S cells", "design": "species or system murine", "protocol": "RMA and RMA-S cells were cultured for 36 h at 26° C. in Iscove's medium supplemented with 2% human pooled serum. […] MHC class I molecules were immunoprecipitated using rabbit anti-H-2^b serum (29). Class I-associated peptide was quantitated by γ-spectrometry. For determination of H-2 levels 10^6 cells were iodinated using lactoperoxidase-catalyzed iodination. Subsequently cells were washed three times in PBS and lysed in TRITON X-100 lysis buffer. H-2 antigens were precipitated from equal amounts of trichloro-acetic acid (TCA)-precipitable counts (30) using rabbit anti-H-2^b serum (29). Immunoprecipitates were analysed by SDS-PAGE on 12% gels, and gels were exposed to Kodak (Rochester, N.Y.) X-AR5 (photographic film) films. Results were expressed in arbitrary units. One unit is defined as the level of cell surface H-2 per cell and peptide binding per cell, respectively on RMA cells.\nDirect peptide binding studies on RMA and RMA-S cells. […] MHC class I molecules were immunoprecipitated using rabbit anti-H-2^b serum. Class I-associated peptide was quantitated by γ-spectrometry. Results are means of duplicate experiments and shown in dpm after subtraction of normal serum control precipitates (A). In (B) 26° C. pre-cultured RMA and RMA-S cells were surface iodinated and H-2 antigens were precipitated from equal amounts of TCA-precipitable counts using rabbit anti-H-2^b serum. The amount of cell surface H-2 on RMA-S cells is depicted relative to the amount on […]. […] The amount of class I-associated peptide on RMA-S cells is depicted relative to the amount on RMA-S cells, which is set at 1 arbitrary unit. Similar results were obtained in three independent experiments."}, "Sendai virus": {"system": "Sendai virus", "conditions": "reference 12, cited from earlier work"}, "HLA-A2.1": {"target": "T1, HLA-A2.1 (Homo sapiens, UniProt P04439)", "T1 construct": "detected by antibody BB7.2", "T1 sequence (P04439 25-365)": "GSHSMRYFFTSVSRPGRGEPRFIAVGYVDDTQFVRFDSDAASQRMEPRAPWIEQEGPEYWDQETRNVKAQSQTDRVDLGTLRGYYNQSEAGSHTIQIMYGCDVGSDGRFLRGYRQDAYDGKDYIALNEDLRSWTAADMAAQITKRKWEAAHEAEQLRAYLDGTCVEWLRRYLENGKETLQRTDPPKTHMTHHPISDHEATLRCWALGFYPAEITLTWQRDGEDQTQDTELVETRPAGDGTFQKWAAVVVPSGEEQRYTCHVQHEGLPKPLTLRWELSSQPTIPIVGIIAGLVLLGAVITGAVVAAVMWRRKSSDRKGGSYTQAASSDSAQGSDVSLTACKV", "T1 sequence (P61769 21-119 partner)": "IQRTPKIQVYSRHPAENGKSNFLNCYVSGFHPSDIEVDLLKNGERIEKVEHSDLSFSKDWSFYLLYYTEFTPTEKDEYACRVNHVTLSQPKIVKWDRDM", "assay": "Peptide binding to HLA-A2.1 on (174.CEM) T2 cells", "conditions": "200 μg/ml peptide, BB7.2 immunofluorescence", "protocol": "Of this suspension 40 μl was put into a V bottomed 96 well plate (Greiner GmbH, Frickenhausen, Germany: 651101) together with 10 μl of the individual peptide dilutions (of 1 mg/ml). […] After a centrifuge round of 1200 rpm the pellet was resuspended in 50 μl of saturating amounts of HLA-A2.1 specific mouse monoclonal antibody BB7.2 for 30 minutes at 4° C."}, "[2]": {"conditions": "700 nM 125I-S9, 1 h, 26° C., FIG. 4B"}},
  "note": "Like-named read-outs stand apart in the source and are kept apart here.",
  "data": [
    {"compound": "CC(C)C[C@H](NC(=O)[C@@H](N)CC(C)C)C(=O)NCC(=O)N[C@@H](CCCNC(=N)N)C(=O)N[C@@H](CC(N)=O)C(=O)N[C@@H](CO)C(=O)N[C@@H](Cc1ccccc1)C(=O)N[C@@H](CCC(=O)O)C(=O)N[C@H](C(=O)O)C(C)C", "note": "[A8]", "values": [
      {"measurement": "peptide concentration sufficient for target cell sensitization", "setting": "T2 cells", "value": 20, "unit": "ng/mL"},
      {"measurement": "Generation of CTL response against autologous peptide in vitro", "setting": "174CEM.T2 cells", "value": "possible to generate a CTL response against an autologous peptide"}
    ]},
    {"compound": "CDSGPSNTPPEIHPW (CDSGPSNTPPEIHPVV) [A16]", "values": [
      {"measurement": "Sensitization of target cells for lysis by CTL", "setting": "target cells", "value": "sensitize target cells for lysis by a CTL clone"},
      {"measurement": "Induction of primary CTL response by peptide-loaded RMA-S cells", "setting": "RMA-S cells", "value": "Primary CTL responses could be induced"}
    ]},
    {"compound": "FAPGNYPAL [S9, Sendai virus nucleoprotein peptide of 9 aa]", "values": [
      {"measurement": "Induction of primary CTL response by peptide-loaded RMA cells", "setting": "RMA cells", "value": "non-stimulatory"},
      {"measurement": "minimally required concentration for primary response induction by peptide-loaded RMA-S cells", "setting": "RMA-S cells; FIG. 3A and B", "value": 1, "unit": "µM"},
      {"measurement": "Induction of primary CTL response by peptide-loaded RMA-S cells", "setting": "RMA-S cells", "value": "primary response was obtained only by stimulation of T cells with peptide-loaded RMA-S cells"},
      {"measurement": "difference in peptide binding per cell between RMA and RMA-S cells", "setting": "[1]; [2]", "value": 2.5, "unit": "fold"},
      {"measurement": "peptide binding per H-2 molecule on RMA-S cells versus RMA cells", "setting": "[1]; [2]", "value": "tenfold higher"},
      {"measurement": "peptide concentration giving comparable binding, on RMA-S (26° C.)", "setting": "[1]; comparable to RMA at 1 μM, FIG. 4A", "value": 1, "unit": "nM"},
      {"measurement": "peptide concentration giving comparable binding, on RMA (26° C.)", "setting": "[1]; comparable to RMA-S at 1 nM, FIG. 4A", "value": 1, "unit": "µM"},
      {"measurement": "amount of peptide bound to RMA cells at 20 μM", "setting": "[1]; compared with RMA-S cells at 1 μM", "value": "did not reach the amount of peptide bount to RMA-S cells observed at 1 μM"}
    ]},
    {"compound": "HGEFAPGNYPALWSYA [S16]", "values": [
      {"measurement": "Sensitization of target cells for lysis by CTL", "setting": "target cells", "value": "sensitize target cells for lysis by specific H-2K^b -restricted CTL"},
      {"measurement": "Induction of primary CTL response by peptide-loaded RMA-S cells", "setting": "RMA-S cells", "value": "Primary CTL responses could be induced"},
      {"measurement": "Induction of CTL memory in vivo by vaccination with peptide", "setting": "Sendai virus", "value": "induces CTL memory in vivo"},
      {"measurement": "Protection against lethal Sendai virus infection", "setting": "Sendai virus", "value": "induce protective immunity against a lethal Sendai virus infection"},
      {"measurement": "Protection against lethal Sendai virus infection", "setting": "Sendai virus; listed as Sendai virus 16-mer peptide", "value": "protection against otherwise lethal Sendai virus doses"}
    ]},
    {"compound": "RMPEAAPPV [D6]", "values": [
      {"measurement": "Binding to HLA-A2.1", "setting": "HLA-A2.1", "value": "bind to the HLA-A2.1 molecule"}
    ]}
  ]
}
